This is an account of results in ChEMBL document CHEMBL1127989, “Structure-activity studies of synthetic FKBP ligands as peptidyl-prolyl isomerase inhibitors” (Bioorg Med Chem Lett, 1994).

One test in a line: Apparent inhibition constant against peptidyl prolyl isomerase; range=0.004-0.010. The conditions noted are these: read-out: Ki app.
As for `CCC(C)(C)C(=O)C(=O)N1CCCC[C@@H]1C(=O)OC(CCc1ccccc1)c1ccc2ccccc2c1` (stereo partly specified), the Ki worked out at 4 nM.

A further test can be described thus: Inhibition constant against peptidyl prolyl isomerase. Particulars: read-out: Ki app.
As to `C/C(=C\c1ccccc1)COC(=O)C1CCCCN1C(=O)C(=O)C1CCCCC1` (stereo unspecified), the Ki amounted to 300 nM.

Take `CCCC(=O)C1CCCCN1C(=O)C(=O)C(C)(C)CC` (stereo unspecified): the Ki came to 30000 nM.

Regarding `C=CCN(CC(=O)OCC)C(=O)C(=O)C1(OC)CCCCC1`, the Ki stood at 260000 nM.

As to `CCOC(=O)CN(C)C(=O)C(=O)C1(OC)CCCCC1`, the Ki was 23000 nM.

Regarding `CCOC(=O)[C@@H]1CCCN1C(=O)C(=O)C1(OC)CCCCC1`, the Ki was 8000 nM.

`CCOC(=O)C1CCCCN1C(=O)C(C)=O` (stereo unspecified): the Ki is 170000 nM.

For `CCC(C)(C)C(=O)C(=O)N1CCCCC1C(=O)OCCCC1CCCCC1` (stereo unspecified), the Ki was found to be 186 nM.

With `CCC(C)(C)C(=O)C(=O)N1CCCCC1C(=O)OCCc1ccccc1` (stereo unspecified), the Ki is 340 nM.

`O=C(C(=O)N1CCCCC1C(=O)NCCCc1ccccc1)C1CCCCC1` (stereo unspecified): the Ki was 1000 nM.

On to `CCC(C)(C)C(=O)C(=O)N1CCCCC1C(=O)OCCCc1c[nH]c2ccccc12` (stereo unspecified), for which the Ki was found to be 23 nM.

Consider `CCOC(=O)C1CCCCN1C(=O)C(=O)C(C)(C)C` (stereo unspecified), for which the Ki turned out to be 2000 nM.

For `CCOC(=O)C1CCCCN1C(=O)C(=O)C1(O)CCCCC1` (stereo unspecified), the Ki was determined as 1600 nM.

Turning to `CCC(C)(C)C(=O)C(=O)N1CCCC[C@@H]1C(=O)OC(CCc1ccc2c(c1)OCO2)c1ccccc1` (stereo partly specified), the Ki amounted to 9 nM.

Turning to `CCC(C)(C)C(=O)C(=O)N1CCCCC1C(=O)OCCCc1cccnc1` (stereo unspecified), the Ki stood at 165 nM.

As for `CCC(C)(C)C(=O)C(=O)N1CCCCC1C(=O)OCCCc1ccccc1OC` (stereo unspecified), the Ki was 60 nM.

As for `CCOC(=O)C1CCCCN1C(=O)C(=O)Cc1ccccc1` (stereo unspecified), the Ki was found to be 9000 nM.

Take `O=C(C(=O)N1CCCCC1C(=O)OCc1ccccc1)C1CCCCC1` (stereo unspecified): the Ki stood at 400 nM.

Take `CCC(C)(C)C(=O)C(=O)N1CCCCC1C(=O)OCc1cccc2ccccc12` (stereo unspecified): the Ki stood at 250 nM.

For the compound `CCOC(=O)C1CCCCN1C(=S)C(=O)CC(C)C` (stereo unspecified), the Ki was 4300 nM.

As to `CCC(C)(C)C(=O)C(=O)N1CCCC[C@@H]1C(=O)OC(CCc1cc(OC)c(OC)c(OC)c1)c1ccccc1` (stereo partly specified), the Ki turned out to be 9 nM.

As for `C=CC(C)(C)C(CCc1ccccc1)OC(=O)[C@H]1CCCCN1C(=O)C(=O)C(C)(C)CC` (stereo partly specified), the Ki stood at 250 nM.

For `CCC(C)(C)C(=O)C(=O)N1CCCCC1C(=O)OCCc1c[nH]c2ccccc12` (stereo unspecified), the Ki is 330 nM.

With `CCOC(=O)C1CCCN(C(=O)C(=O)C2(OC)CCCCO2)C1` (stereo unspecified), the Ki is 180000 nM.

`CCC(C)(C)C(=O)C(=O)N1CCCCC1C(=O)OCCCCc1ccccc1` (stereo unspecified): the Ki worked out at 100 nM.

In the case of `COC1(C(=O)C(=O)N2CCCCC2)CCCCO1` (stereo unspecified), the Ki was 160000 nM.

Regarding `CCOC(=O)C1CCCCN1C(=O)C(=O)CC` (stereo unspecified), the Ki was determined as 50000 nM.

As for `CCC(C)(C)C(=O)C(=O)N1CCCCC1C(=O)OCC(C)(C)C` (stereo unspecified), the Ki is 410 nM.

For `CC(C)(CCC1CCCCC1)OC(=O)C1CCCCN1C(=O)C(=O)C1CCCCC1` (stereo unspecified), the Ki worked out at 200 nM.

Regarding `CCC(C)(C)C(=O)C(=O)N1CCCCC1C(=O)OC/C=C/c1ccc(OC)c(OC)c1` (stereo unspecified), the Ki worked out at 35 nM.

Turning to `CCOC(=O)C1CCCCN1C(=O)C(=O)C1=CCCCO1` (stereo unspecified), the Ki came to 20000 nM.

For the compound `COc1cc(CCCOC(=O)[C@@H]2CCCCN2S(=O)(=O)Cc2ccccc2)cc(OC)c1OC`, the Ki worked out at 230 nM.

On to `CCOC(=O)C1CCCCN1C(=O)C(=O)c1ccccc1` (stereo unspecified), for which the Ki was 8000 nM.

Turning to `CCC(C)(C)C(O)C(=O)N1CCCC[C@H]1C(=O)OCCCc1ccccc1` (stereo partly specified), the Ki amounted to 2300 nM.

With `CCC(C)(C)C(=O)C(=O)N1CCCC[C@@H]1C(=O)OC(CCc1ccccc1)C1CCCCC1` (stereo partly specified), the Ki was determined as 7 nM.

Turning to `CCOC(=O)C1CCCCN1C(=O)C(=O)N1CCCCC1` (stereo unspecified), the Ki was 33000 nM.

On to `CCC(C)(C)C(=O)C(=O)N1CCCC[C@@H]1C(=O)OC(CCC1CCCCC1)c1ccccc1` (stereo partly specified), for which the Ki came out at 10 nM.

Turning to `CCC(C)(C)C(=O)C(=O)N1CCCCC1C(=O)OC(CCc1ccccc1)Cc1ccccc1` (stereo unspecified), the Ki worked out at 55 nM.

As to `CCOC(=O)C1CCCCN1C(=O)C(=O)C(C)(C)COC(C)=O` (stereo unspecified), the Ki worked out at 1000 nM.

`CCC(C)(C)C(=O)C(=O)N1CCCCC1C(=O)OCCCc1ccc(OC)c(OC)c1` (stereo unspecified): the Ki came to 20 nM.

Take `CCC(C)(C)C(=O)C(=O)N1CCCCC1C(=O)OCCCc1cc(OC)c(OC)c(OC)c1` (stereo unspecified): the Ki was found to be 12 nM.

Consider `CCC(C)(C)C(=O)C(=O)N1CCCCC1C(=O)OCCC(c1ccccc1)c1ccccc1` (stereo unspecified), for which the Ki is 27 nM.

As to `CCOC(=O)C1CCCCN1C(=O)C(=O)C(C)C` (stereo unspecified), the Ki came out at 6000 nM.

With `CCOC(=O)C1CCCCN1NC(=O)C1CCCCC1` (stereo unspecified), the Ki came out at 730000 nM.

In the case of `CCOC(=O)[C@H]1CCCCN1C(=O)C(=O)C1(OC)CCCCC1`, the Ki came out at 22000 nM.

For `CCOC(=O)[C@H]1CCCN1C(=O)C(=O)C1(OC)CCCCC1`, the Ki amounted to 600000 nM.

For `CCC(C)(C)C(=O)C(=O)N1CCCC[C@H]1C(=O)OC(CCc1ccccc1)C1CCCCC1` (stereo partly specified), the Ki was determined as 300 nM.

As to `CCOC(=O)C1CCCCN1C(=O)C(=O)CC(C)C` (stereo unspecified), the Ki was found to be 2000 nM.

On to `CCC(C)(C)C(=O)C(=O)N1CCCCC1C(=O)OCCCc1ccc(OC)cc1` (stereo unspecified), for which the Ki came out at 70 nM.

Consider `CCOC(=O)C1CCCCN1C(=O)C(=O)C1(OC)CCCCC1` (stereo unspecified), for which the Ki is 1000 nM.

As for `O=C(C(=O)N1CCCC[C@H]1C(=O)OC(CCC1CCCCC1)c1ccccc1)C1CCCCC1` (stereo partly specified), the Ki turned out to be 16000 nM.

`COc1cc(CC[C@@H](OC(=O)[C@@H]2CCCCN2C(=O)CC(C)(C)C)c2ccccc2)cc(OC)c1OC`: the Ki is 200 nM.

In the case of `CCOC(=O)C1CCCCN1C(=O)C(=O)C1CCCCC1` (stereo unspecified), the Ki was found to be 2000 nM.

As to `CCOC(=O)C1CCCCN1C(=O)C(=O)C1(OC)CCCCO1` (stereo unspecified), the Ki came out at 4000 nM.

`O=C(O[C@H](CCc1ccccc1)c1ccccc1)[C@@H]1CCCCN1S(=O)(=O)Cc1ccccc1`: the Ki was 160 nM.

For the compound `CCC(C)(C)C(=O)C(=O)N1CCCCC1C(=O)OCc1ccc2ccccc2c1` (stereo unspecified), the Ki amounted to 200 nM.

Consider `CCC(C)(C)C(=O)C(=O)N1CCCCC1C(=O)OCCCc1ccc(OCc2ccccc2)cc1` (stereo unspecified), for which the Ki came out at 60 nM.

Take `CCC(C)(C)C(=O)C(=O)N1CCCCC1C(=O)OCCCc1ccc(O)cc1` (stereo unspecified): the Ki was determined as 95 nM.

As for `CCC(C)(C)C(=O)C(=O)N1CCCCC1C(=O)OCCCc1ccccc1` (stereo unspecified), the Ki stood at 110 nM.

On to `CCOC(=O)C1CCCCN1C(=O)C(=O)C(C)(C)CC` (stereo unspecified), for which the Ki is 660 nM.

For the compound `O=CC1CCCCN1C(=O)C(=O)C1CCCCC1` (stereo in doubt; 35), the Ki was 250 nM.

For the compound `O=CC1CCCCN1C(=O)C(=O)C1CCCCC1` (stereo in doubt; 44), the Ki is 200 nM.

For `O=CC1CCCCN1C(=O)C(=O)C1CCCCC1` (stereo in doubt; 59), the Ki was determined as 20 nM.

For the compound `CO[C@H]1C[C@@H]2CC[C@@H](C)[C@@](O)(O2)C(=O)C(=O)N2CCCC[C@H]2C(=O)O[C@H]([C@H](C)C[C@@H]2CC[C@@H](O)[C@H](OC)C2)CC(=O)[C@H](C)/C=C(\C)[C@@H](O)[C@@H](OC)C(=O)[C@H](C)C[C@H](C)/C=C/C=C/C=C/1C` [SIROLIMUS], the Ki came to 1000 nM.

A short description of a further test: Apparent inhibition constant against peptidyl prolyl isomerase; range = 0.002-0.006. Particulars: read-out: Ki app.
Take `CCC(C)(C)C(=O)C(=O)N1CCCC[C@@H]1C(=O)OC(CCc1ccc(OC)c(OC)c1)c1ccccc1` (stereo partly specified): the Ki was determined as 2 nM.

The next test is described as follows: Apparent inhibition constant against peptidyl prolyl isomerase (Ki app).
Settings: not given
With `O=C(C(=O)N1CCCCC1C(=O)N(CCCc1ccccc1)Cc1ccccc1)C1CCCCC1` (stereo unspecified), the Ki was found to be 20000 nM.

On to `O=C(C(=O)N1CCCC[C@@H]1C(=O)NC(CO)Cc1ccccc1)C1CCCCC1` (stereo partly specified), for which the Ki came to 60000 nM.

On to `CCOC(=O)C(CCc1ccccc1)NC(=O)[C@H]1CCCCN1C(=O)C(=O)C1CCCCC1` (stereo partly specified), for which the Ki turned out to be 1900 nM.

Take `O=C(C(=O)N1CCCCC1C(=O)NCCc1ccccc1)C1CCCCC1` (stereo unspecified): the Ki turned out to be 3000 nM.

Still in this test, the particulars now being: read-out: Ki app.
For the compound `CCOC(=O)C1CCCCN1C(=O)C(=O)C1(O)CCCCO1` (stereo unspecified), the Ki is 7000 nM.

A further test can be described thus: Apparent inhibition constant against peptidyl prolyl isomerase; range=0.3-0.6. Particulars: read-out: Ki app.
For `CCC(C)(C)C(=O)C(=O)N1CCCC[C@H]1C(=O)OC(CCc1ccccc1)c1ccccc1` (stereo partly specified), the Ki was 300 nM.
